Experimental data as given in BindingDB's records for patent US8748618 (University of Virginia Patent Foundation, 2014).

molecular target: T1, Core-binding factor subunit beta (Homo sapiens, UniProt Q13951); assay: FRET Assay
T1 sequence (Q13951 whole entry): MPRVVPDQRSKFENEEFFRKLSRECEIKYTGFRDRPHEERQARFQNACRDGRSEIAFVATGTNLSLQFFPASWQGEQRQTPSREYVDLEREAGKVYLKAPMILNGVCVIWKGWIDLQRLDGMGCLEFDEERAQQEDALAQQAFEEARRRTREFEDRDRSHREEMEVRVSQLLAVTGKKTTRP
Source text: We have developed effective assays to monitor the inhibition of CBFβ-SMMHC binding to the Runt domain (as well as for CBFβ binding to the Runt domain). […] The ratio of the emission intensities at 525 nm and 474 nm, measured after excitation at 433 nm, was used as the readout in this assay.

Row | IC50 | SMILES
1 | 4.2 µM | CCOc1cccc2[nH]c(-c3ccccn3)nc12 [US8748618, AI-4-42]
2 | 1.4 µM | Fc1cc2[nH]c(-c3ccccn3)nc2c(F)c1F [US8748618, AI-4-43]
3 | 5.3 µM | Cc1cccc2[nH]c(-c3ccccn3)nc12 [US8748618, AI-4-46]
4 | 0.76 µM | FC(F)(F)c1cc(Cl)c2[nH]c(-c3ccccn3)nc2c1 [US8748618, AI-4-48]
5 | 0.7 µM | Clc1cc(Cl)c2nc(-c3ccccn3)[nH]c2c1 [US8748618, AI-4-49]
6 | 5.5 µM | COc1cccc2[nH]c(-c3ccccn3)nc12 [US8748618, AI-4-52]
7 | 1 µM | c1ccc(-c2nc3ccc(N4CCOCC4)cc3[nH]2)nc1 [US8748618, AI-10-3]
8 | 3.3 µM | CS(=O)(=O)c1ccc2nc(-c3ccccn3)[nH]c2c1 [US8748618, AI-10-37]
9 | 1 µM | FC(F)(F)Oc1ccc2[nH]c(-c3ccccn3)nc2c1 [US8748618, AI-10-47]
10 | 2.5 µM | Oc1ccc2nc(-c3ccccn3)[nH]c2c1 [US8748618, AI-10-61]
11 | 22 µM | Fc1cccnc1-c1nc2ccc(OC(F)(F)F)cc2[nH]1 [US8748618, AI-10-65]
12 | 2.3 µM | COCCOc1ccc(-c2nc3ccc(OC(F)(F)F)cc3[nH]2)nc1 [US8748618, AI-10-87]
13 | 3.4 µM | c1ccc(-c2nc3cc(-n4ccnc4)ccc3[nH]2)nc1 [US8748618, AI-10-88]

Row | SMILES | IC50
14 | CC(C)Oc1ccc2[nH]c(-c3ccccn3)nc2c1 [US8748618, AI-4-70 (or) LD-2-21] | 1.4 µM
15 | Cc1ccc2[nH]c(-c3ccccn3)nc2c1C [US8748618, LD-1-23] | 4.3 µM
16 | CCOc1ccc2[nH]c(-c3ccccn3)nc2c1 [US8748618, LD-1-29 (or) AI-10-54] | 1.5 µM
17 | Fc1ccc2[nH]c(-c3ccccn3)nc2c1 [US8748618, LD-1-31] | 2.5 µM
18 | Fc1cc2nc(-c3ccccn3)[nH]c2cc1F [US8748618, LD-1-33] | 2.5 µM
19 | Cc1cc2nc(-c3ccccn3)[nH]c2cc1C [US8748618, LD-1-37] | 2 µM
20 | Cc1ccc2[nH]c(-c3ccccn3)nc2c1 [US8748618, LD-2-11] | 2.9 µM
21 | FC(F)(F)c1ccc2[nH]c(-c3ccccn3)nc2c1 [US8748618, LD-2-23] | 1.1 µM
22 | Clc1ccc2nc(-c3ccccn3)[nH]c2c1 [US8748618, LD-2-79] | 2.3 µM
